Like-named read-outs stand apart in the source and are kept apart here.
Columns and labels:
[1] = molecular target: CRBN-DDB1 (Homo sapiens, UniProt Q96SW2); assay: CRBN FP binding assay (fluorescence polarization); conditions: 150 nM CRBN-DDB1, 5 nM Alexa-647 probe, read-out: FP CRBN_DDB1.3 ka
Protocol: The determination of the binding constant (KD) of test compounds to CRBN-DDB1 was carried out using an established sensitive and quantitative in vitro fluorescence polarization (FP) binding assay. Control compounds were run on the same plate. Compounds were dispensed from serially diluted DMSO stock supplied by Frontier Scientific Services Inc in low dead volume plates into black 384-well compatible FP plates using acoustic technology to 1% of total reaction volume. Compounds were arranged vertically in rows A through P. Concentrations series are horizontal: columns 1-11, and then duplicates in columns 12-22. Columns 23 and 24 are reserved for 0% (5 nM probe) and 100% controls (protein at high concentration with 5 nM probe), respectively. […] Matching control plates excluding CRBN-DDB1 were used to correct for background fluorescence. Plates were read on an Envision plate reader with appropriate FP filter sets.

[2] = molecular target: cellular cereblon (CRBN) (Homo sapiens, UniProt Q96SW2); assay: NanoBRET CRBN assay, displacement of pomalidomide-NanoBRET tracer in 293T cells
[3] = molecular target: T1, CBP/P300 (Homo sapiens, UniProt Q92793); assay: CBP/P300 degradation, Nano-Glo HiBiT lytic assay; assay type: cell-based; conditions: HEK293T HiBiT-CBP cells, 6 h incubation; for Emax: HEK-293T
T1 construct: endogenous in cells; host or cells: HEK293T (CRISPR/Cas9 HiBiT knock-in at the CBP locus)
Excerpt: Assay media was DMEM no-phenol red medium and fetal bovine serum (FBS) were purchased from Gibco (Grand Island, N.Y., USA). Nano-Glo®, 1HiBiT Lydc Assay Systeni was purchased from Promega (Madison, Wis. USA). Stable HEK293T cell line with endogenously tagged HiBiT-CBP was generated in house by CRISPR/Cas9 gene editing introducing the HiBiT fusion tag at the N-terminus using homologous directed repair. Cell culture flasks and 384-well microplates were acquired from VWR (Radnor, Pa., USA).
CBP degradation was determined based on quantification of luminescent signal using Nano-Glo® HiBiT Lytic Assay kit. Test compounds were added to the 384-well plate from a top […] with 11 points, half log titration in duplicates, Cells were added into 384-well Corning 3570 plates, (Corning, Tewksbury, MA, USA) at a cell density of 10,000 cells per well in assay media. The plates were incubated at 37° C. with 5% CO2 for 6 hours. The cells treated in the absence of the test compound were the negative control and media was the positive control. After 6-hour incubation, Nano-Glo® HiBiT Lytic Assay reagents were added to the cells, Luminescence was acquired on EnVision™ Multilabel Reader (PerkinElmer, Santa Clara, Calif., USA).

[4] = system: ERK1/2; assay: ERK1/2 degradation, Total ERK HTRF assay in Colo205 cells; assay type: cell-based; conditions: 6 h, read-out: ERK1/2 6 h DC50 (Emax %)
Protocol: Colo205 CCL-222 cells were purchased from ATCC. RPMI 1640 no-phenol red medium and fetal bovine serum (FBS) were purchased from Gibco (Grand Island, NY, USA). Cell culture flasks and 384-well microplates were acquired from VWR (Radnor, PA, USA). Total ERK HTRF assay kits were purchased from Cisbio (64NRKPEH, Bedford, MA, USA).
Degradation of ERK1/2 was determined based on quantification of FRET signal using a Total ERK1/2 HTRF assay kit. Test compounds were added to the 384-well plate from a top concentration of 10 μM with 10 points, half-log titration in duplicates. COL0205 cells were added into 384-well plates at a cell density of 5,000 cells per well. The plates were kept at 37° C. with 5% CO2 for 6 hours. Cells treated in the absence of the test compound were the negative control. Positive control was set by wells containing all reagents but no cells. HTRF regents were added according to manufacturer's instructions with the additional step of lysate denaturation at 95° C. for 10 minutes and cooling to room temperature before antibody addition. Following addition of the antibodies the samples were incubated overnight. FRET signal was acquired on an EnVision™ Multilabel Reader (PerkinElmer, Santa Clara, CA, USA).

[5] = molecular target: NSP3 UBL2_PLpro-HA-HiBiT (Severe acute respiratory syndrome coronavirus 2, UniProt P0DTC1); assay: NSP3 UBL2_PLpro-HA-HiBiT degradation assay (cellular) in 293T cells; assay type: cell-based, Severe acute respiratory syndrome Coronavirus 2 (Sars-CoV-2); conditions: 6.0 hours; for DC50: read-out: HiBiT-Degradation 293T.234 NSP3_PLpro 6.0 hours (DC50); for Emax: HEK-293T, Emax = residual protein remaining after treatment, read-out: HiBiT-Degradation 293T.234 NSP3_PLpro 6.0 hours (Emax %)
[6] = 1.5 h room temperature, class symbols
[7] = 1.5 h room temperature, numeric bounds

T1 sequence (Q92793 whole entry): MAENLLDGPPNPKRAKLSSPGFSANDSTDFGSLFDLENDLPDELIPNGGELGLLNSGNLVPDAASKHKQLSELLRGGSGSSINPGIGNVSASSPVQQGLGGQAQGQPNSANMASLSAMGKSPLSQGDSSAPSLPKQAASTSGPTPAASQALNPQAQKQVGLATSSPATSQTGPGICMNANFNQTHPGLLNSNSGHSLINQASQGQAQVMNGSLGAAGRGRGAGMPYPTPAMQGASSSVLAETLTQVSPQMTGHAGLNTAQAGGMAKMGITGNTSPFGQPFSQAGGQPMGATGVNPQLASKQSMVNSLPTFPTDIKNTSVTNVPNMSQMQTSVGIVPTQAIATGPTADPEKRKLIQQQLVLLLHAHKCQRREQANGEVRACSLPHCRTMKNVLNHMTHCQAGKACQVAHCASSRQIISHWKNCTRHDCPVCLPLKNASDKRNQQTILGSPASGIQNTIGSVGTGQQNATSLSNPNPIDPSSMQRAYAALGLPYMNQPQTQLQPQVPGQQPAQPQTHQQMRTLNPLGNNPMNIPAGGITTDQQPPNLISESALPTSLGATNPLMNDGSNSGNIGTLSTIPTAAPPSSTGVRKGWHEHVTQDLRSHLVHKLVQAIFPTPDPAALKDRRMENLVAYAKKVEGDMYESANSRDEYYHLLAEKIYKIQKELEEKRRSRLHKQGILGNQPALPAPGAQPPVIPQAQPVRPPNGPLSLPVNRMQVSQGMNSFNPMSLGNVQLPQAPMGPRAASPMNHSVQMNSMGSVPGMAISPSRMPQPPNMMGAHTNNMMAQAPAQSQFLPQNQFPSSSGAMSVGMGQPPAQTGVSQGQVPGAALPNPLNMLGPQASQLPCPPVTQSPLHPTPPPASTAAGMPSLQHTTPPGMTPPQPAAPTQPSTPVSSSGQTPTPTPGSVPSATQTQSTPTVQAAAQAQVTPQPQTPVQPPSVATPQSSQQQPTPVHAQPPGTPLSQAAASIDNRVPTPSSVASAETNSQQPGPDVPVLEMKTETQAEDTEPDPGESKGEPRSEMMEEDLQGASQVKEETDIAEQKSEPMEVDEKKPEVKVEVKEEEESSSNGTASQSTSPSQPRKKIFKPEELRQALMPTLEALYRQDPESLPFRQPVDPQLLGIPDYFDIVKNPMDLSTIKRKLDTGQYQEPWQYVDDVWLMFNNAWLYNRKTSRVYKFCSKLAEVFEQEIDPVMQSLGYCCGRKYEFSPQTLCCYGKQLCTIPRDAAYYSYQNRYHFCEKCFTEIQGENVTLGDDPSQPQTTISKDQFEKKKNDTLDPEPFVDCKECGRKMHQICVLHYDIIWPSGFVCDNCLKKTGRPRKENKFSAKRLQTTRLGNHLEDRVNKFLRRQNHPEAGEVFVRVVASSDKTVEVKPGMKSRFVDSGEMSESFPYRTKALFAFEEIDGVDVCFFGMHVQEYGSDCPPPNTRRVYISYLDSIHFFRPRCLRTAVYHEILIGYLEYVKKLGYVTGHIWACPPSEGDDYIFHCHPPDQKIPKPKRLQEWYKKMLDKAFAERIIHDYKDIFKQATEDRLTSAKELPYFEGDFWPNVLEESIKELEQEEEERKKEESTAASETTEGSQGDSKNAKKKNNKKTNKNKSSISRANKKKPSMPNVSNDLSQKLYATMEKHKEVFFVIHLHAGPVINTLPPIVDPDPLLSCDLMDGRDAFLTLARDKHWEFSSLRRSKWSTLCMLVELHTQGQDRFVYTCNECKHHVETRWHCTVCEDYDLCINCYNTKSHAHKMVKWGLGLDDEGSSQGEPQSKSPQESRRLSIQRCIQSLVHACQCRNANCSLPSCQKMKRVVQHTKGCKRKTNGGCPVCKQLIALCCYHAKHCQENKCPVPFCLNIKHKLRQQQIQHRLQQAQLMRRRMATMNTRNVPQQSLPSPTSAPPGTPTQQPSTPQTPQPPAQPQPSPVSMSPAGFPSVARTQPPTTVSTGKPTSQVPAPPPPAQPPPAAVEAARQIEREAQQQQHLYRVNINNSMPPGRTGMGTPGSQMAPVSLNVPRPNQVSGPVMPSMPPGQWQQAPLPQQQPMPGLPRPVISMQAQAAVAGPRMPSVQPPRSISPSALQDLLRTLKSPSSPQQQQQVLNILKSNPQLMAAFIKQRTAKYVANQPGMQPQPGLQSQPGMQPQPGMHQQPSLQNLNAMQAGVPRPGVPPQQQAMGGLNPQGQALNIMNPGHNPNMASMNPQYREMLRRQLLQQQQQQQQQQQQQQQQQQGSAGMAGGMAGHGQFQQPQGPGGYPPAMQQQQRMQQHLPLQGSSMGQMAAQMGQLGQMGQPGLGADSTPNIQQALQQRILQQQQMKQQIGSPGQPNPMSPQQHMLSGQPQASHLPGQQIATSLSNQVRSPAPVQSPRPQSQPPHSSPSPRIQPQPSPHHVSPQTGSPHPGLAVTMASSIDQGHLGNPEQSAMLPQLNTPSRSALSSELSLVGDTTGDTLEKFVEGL
Sequence of CRBN-DDB1 (Q96SW2 whole entry): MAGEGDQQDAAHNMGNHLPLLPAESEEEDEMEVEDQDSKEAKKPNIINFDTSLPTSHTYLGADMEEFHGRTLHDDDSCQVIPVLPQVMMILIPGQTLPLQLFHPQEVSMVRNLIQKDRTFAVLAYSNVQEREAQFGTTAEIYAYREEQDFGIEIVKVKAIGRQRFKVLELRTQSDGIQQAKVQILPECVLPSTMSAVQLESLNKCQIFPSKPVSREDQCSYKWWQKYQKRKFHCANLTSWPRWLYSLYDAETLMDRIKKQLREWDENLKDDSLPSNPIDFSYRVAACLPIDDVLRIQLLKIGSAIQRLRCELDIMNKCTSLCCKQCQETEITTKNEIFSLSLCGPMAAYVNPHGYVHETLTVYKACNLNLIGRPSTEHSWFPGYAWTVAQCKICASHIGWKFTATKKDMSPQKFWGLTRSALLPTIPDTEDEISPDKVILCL
Sequence of CRBN-DDB1 (Q16531 whole entry partner): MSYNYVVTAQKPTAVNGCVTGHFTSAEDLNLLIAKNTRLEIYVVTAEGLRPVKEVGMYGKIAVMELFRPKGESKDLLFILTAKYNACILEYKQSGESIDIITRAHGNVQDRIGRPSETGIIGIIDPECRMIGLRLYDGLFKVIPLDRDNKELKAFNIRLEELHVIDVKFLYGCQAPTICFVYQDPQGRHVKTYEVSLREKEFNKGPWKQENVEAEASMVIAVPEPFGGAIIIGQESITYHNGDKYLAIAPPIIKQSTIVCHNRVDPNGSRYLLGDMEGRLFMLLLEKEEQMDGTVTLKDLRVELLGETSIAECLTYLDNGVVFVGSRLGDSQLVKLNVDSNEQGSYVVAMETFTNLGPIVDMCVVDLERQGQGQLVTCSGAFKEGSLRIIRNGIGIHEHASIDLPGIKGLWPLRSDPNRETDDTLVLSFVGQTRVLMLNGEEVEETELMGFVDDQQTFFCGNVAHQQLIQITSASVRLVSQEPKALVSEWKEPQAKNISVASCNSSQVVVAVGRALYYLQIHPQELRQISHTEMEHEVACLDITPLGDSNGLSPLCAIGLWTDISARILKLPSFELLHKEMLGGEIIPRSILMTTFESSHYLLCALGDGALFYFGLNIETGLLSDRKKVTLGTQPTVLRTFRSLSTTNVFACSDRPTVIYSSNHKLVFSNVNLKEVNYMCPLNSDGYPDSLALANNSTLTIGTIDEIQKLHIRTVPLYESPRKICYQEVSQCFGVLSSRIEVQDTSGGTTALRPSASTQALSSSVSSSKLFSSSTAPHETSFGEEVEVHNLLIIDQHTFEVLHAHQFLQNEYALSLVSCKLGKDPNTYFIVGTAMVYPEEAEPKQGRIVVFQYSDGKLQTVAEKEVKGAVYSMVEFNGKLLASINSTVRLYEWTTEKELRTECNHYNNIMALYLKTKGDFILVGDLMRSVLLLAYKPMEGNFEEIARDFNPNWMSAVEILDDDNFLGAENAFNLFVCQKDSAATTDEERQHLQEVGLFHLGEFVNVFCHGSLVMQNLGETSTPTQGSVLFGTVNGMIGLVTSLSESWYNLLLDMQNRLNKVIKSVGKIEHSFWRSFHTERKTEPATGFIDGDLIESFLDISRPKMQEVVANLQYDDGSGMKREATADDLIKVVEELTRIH
Sequence of cellular cereblon (CRBN) (Q96SW2 whole entry, species assumed): as the sequence (Q96SW2 whole entry) above

Row | Structure (SMILES) | IC50 [2] [nM] | DC50 [5] [nM] | Emax [5] [%] | further results
1 | COC(=O)c1ccc2c3c(cccc13)C(=O)N2C1CCC(=O)NC1=O (stereo not drawn) | < 100 | – | – | Kd [1, 6]: 100 to 1000 nM
2 | CNC(=O)N1CCc2c(c(N3CCCc4cc(-c5cnn(C)c5)c(C(F)F)cc43)nn2C2CCN(C(=O)CCCCCCCCN3CCC(Nc4ccc5c6c(cccc46)C(=O)N5C4CCC(=O)NC4=O)CC3)CC2)C1 (stereo not drawn) | – | – | – | Kd [1, 7]: < 10 nM; DC50 [3]: < 10 nM; Emax [3]: < 30%
3 | Nc1ccc2c3c(cccc13)C(=O)N2C1CCC(=O)NC1=O (stereo not drawn) | < 100 | – | – | Kd [1, 6]: 100 to 1000 nM
4 | N#Cc1ccc2c3c(cccc13)C(=O)N2C1CCC(=O)NC1=O (stereo not drawn) | < 100 | – | – | –
5 | CNC(=O)N1CCc2c(c(N3CCCc4cc(-c5cnn(C)c5)c(C(F)F)cc43)nn2C2CCN(C(=O)CCCCCCCCN3CCC(c4ccc5c6c(cccc46)C(=O)N5C4CCC(=O)NC4=O)CC3)CC2)C1 (stereo not drawn) | – | – | – | Kd [1, 7]: < 10 nM; DC50 [3]: < 10 nM; Emax [3]: < 30%
6 | O=C1CCC(N2C(=O)c3cccc4c(C5CCN(CC(=O)N6CC(c7nc8ccc(-c9n[nH]c%10cc%11c(cc9%10)CN(Cc9ccccc9)C(=O)N%11)cc8o7)C6)CC5)ccc2c34)C(=O)N1 (stereo not drawn) | – | – | – | Kd ([1]; class symbols): 1000 to 10000 nM; DC50 [4]: 100 to 1000 nM
7 | CC(c1ccc(C#CC2CCN(C(=O)CN3CCC(c4ccc5c6c(cccc46)N(C4CCC(=O)NC4=O)C5=O)CC3)CC2)c2ccccc12)N1CCC(C(=O)NCc2cccc(F)c2)CC1 (stereo not drawn) [Compound 103, 1-[1-[4-[2-[1-[2-[4-[1-(2,6-dioxo-3-piperidyl)-2-oxo-benzo[cd]indol-5-yl]-1-piperidyl]acetyl]-4-piperidyl]ethynyl]-1-naphthyl]ethyl]-N-[(3-fluorophenyl)methyl]piperidine-4-carboxamide] | – | > 10000 | 61 to 95 | –
8 | CC(c1cccc2c(C#CC3CCN(C(=O)CN4CCC(c5ccc6c7c(cccc57)C(=O)N6C5CCC(=O)NC5=O)CC4)CC3)cccc12)N1CCC(C(=O)NCc2cccc(F)c2)CC1 (stereo not drawn) [Compound 104, 1-[1-[5-[2-[1-[2-[4-[1-(2,6-dioxo-3-piperidyl)-2-oxo-benzo[cd]indol-6-yl]-1-piperidyl]acetyl]-4-piperidyl]ethynyl]-1-naphthyl]ethyl]-N-[(3-fluorophenyl)methyl]piperidine-4-carboxamide] | – | > 10000 | 61 to 95 | –
9 | CC(c1ccc(C#CC2CCN(C(=O)CN3CCC(c4ccc5c6c(cccc46)C(=O)N5C4CCC(=O)NC4=O)CC3)CC2)c2ccccc12)N1CCC(C(=O)NCc2cccc(F)c2)CC1 (stereo not drawn) [Compound 102, 1-[1-[4-[2-[1-[2-[4-[1-(2,6-dioxo-3-piperidyl)-2-oxo-benzo[cd]indol-6-yl]-1-piperidyl]acetyl]-4-piperidyl]ethynyl]-1-naphthyl]ethyl]-N-[(3-fluorophenyl)methyl]piperidine-4-carboxamide] | – | > 10000 | 61 to 95 | –
10 | O=C1CCC(N2C(=O)C3CCCc4c(C5CCN(CCCC(=O)N6CC(c7nc8ccc(-c9n[nH]c%10cc%11c(cc9%10)CN(Cc9ccccc9)C(=O)N%11)cc8o7)C6)CC5)ccc2c43)C(=O)N1 (stereo not drawn) | – | – | – | Kd ([1]; class symbols): 1000 to 10000 nM; DC50 [4]: 100 to 1000 nM
11 | O=C1CCC(N2C(=O)c3cccc4c(C5CCNCC5)ccc2c34)C(=O)N1 (stereo not drawn) | < 100 | – | – | –
12 | CC(c1cccc2c(C#CC3CCN(C(=O)CN4CCC(c5ccc6c7c(cccc57)N(C5CCC(=O)NC5=O)C6=O)CC4)CC3)cccc12)N1CCC(C(=O)NCc2cccc(F)c2)CC1 (stereo not drawn) [Compound 105, 1-[1-[5-[2-[1-[2-[4-[1-(2,6-dioxo-3-piperidyl)-2-oxo-benzo[cd]indol-5-yl]-1-piperidyl]acetyl]-4-piperidyl]ethynyl]-1-naphthyl]ethyl]-N-[(3-fluorophenyl)methyl]piperidine-4-carboxamide] | – | > 10000 | 61 to 95 | –

From patent US20230372496A1, “TRICYCLIC HETEROBIFUNCTIONAL COMPOUNDS FOR DEGRADATION OF TARGETED PROTEINS” (C4 Therapeutics, Inc., priority 2020, published 2023)
